Experiments:
[1] = Solubility of rhodacyanine compounds in human serum at 37° C.
[2] = system: human colon carcinoma cells (CX-1); experiment: Tumor inhibition in nude mice implanted with human colon carcinoma cells CX-1 (Example 8); format: in vivo, human cells in nude mouse (Swiss nu/nu); details: for Tumor Inhibition: day 1, 2, 4, 6, 7, 8, 9
Protocol: 2,500,000 human colon carcinoma cells (CX-1) were injected subcutaneously into each nude mouse (Swiss nu/nu) obtained from Taconic Farm and the mice were randomly allocated into a control group (five mice) and treatment groups (five mice per group).
The anti-cancer compositions containing HP-β-CD were prepared using the following method. HP-β-CD (45 g) was mixed with 100 ml of sterilized, double distilled water and stirred for four hours. Each of the compounds to be tested (20 mg) was mixed with 10 ml of HP-β-CD solution and sonicated for 60 minutes in the dark. This solution was then diluted in 5% glucose to yield a final compound concentration of 0.5 mg/ml, and further sonicated for 60 minutes in the dark to assure that the compound was completely dissolved. The anti-cancer compositions not containing HP-β-CD were also prepared using the same method except that 5% glucose solution was used instead of the HP-β-CD solution.
The control group received an equivalent volume of 5% glucose solution.
When the growth of tumors in the control group reached the exponential phase and the size of the tumor was palpable (usually 20 to 30 days after tumor implantation), the experiments were terminated. Tumors in each mouse were excised and weighed using an analytical balance. Total tumor weight in each group from five mice was calculated. Per cent tumor inhibition between the treated group and the control group was then calculated for each group.

[3] = Solubility of Compound 1 in aqueous solution containing various solubilizers (Example 1); format: physicochemical; details: for solubility at 24 h: 25° C.
Protocol: Solubilizers, β-CD, polyethylene glycol 400 and Pluronic F60, were added to demineralized water respectively to prepare solutions having concentrations shown in TABLE 1. […] The test tubes were fixed in thermostatic bath controlled at 25° C. and allowed to stand for 24 hours.

[4] = Solubility of Compound 1 in aqueous solutions of β-CD, HP-β-CD and γ-CD (Example 3); format: physicochemical
[5] = Solubility of Compound 1 in rat serum with HP-β-CD (Example 2); format: physicochemical; details: HP-β-CD 0 to 45 w/v %, 30 minutes, 25° C.
Protocol: (§1) Solutions of HP-β-CD in demineralized water having concentrations varying from 0 w/v % to 45 w/v % were prepared as described in EXAMPLE 1. […] The results obtained are shown graphically in FIGS. 1 and 2.

[6] = Precipitation of Compound 1 in rat blood with HP-β-CD (Example 5); format: physicochemical; details: HP-β-CD concentration increases
[7] = Solubility of Compound 1 in fetal calf serum with HP-β-CD (Example 2); format: physicochemical; details: HP-β-CD 0 to 45 w/v %, 30 minutes, 25° C.
Protocol: as §1

[8] = Solubility of Compounds 2, 4 and 5 in aqueous solution containing various cyclodextrin compounds (Example 4); format: physicochemical; details: for Solubility in water with cyclodextrin compounds: β-CD, HP-β-CD, γ-CD
Protocol: as §1
Aqueous solutions of β-CD, HP-β-CD and γ-CD were prepared and solubility of Compounds 2, 4 and 5 in each of the aqueous solutions having the concentration varing as shown in TABLE 2 was determined as described in EXAMPLE 2. For the purpose of comparison, solubility of Compounds 2, 4 and 5 in water was also determined.

human melanoma LOX = experiment: Survival of nude mice implanted with human melanoma LOX (Example 9); format: in vivo, human cells in nude mice

Compound: CCn1c(=CC2=[N+](CC)CCS2)sc(=C2SC3=C(CCCC3)N2C)c1=O
- solubility [1]: > 1000 µg/mL

Compound: CCn1c(=CC2=[N+](CC)CCS2)sc(=C2Sc3ccccc3N2C)c1=O
- solubility [1]: > 1000 µg/mL

Compound: CCn1c(=Cc2scc(C)[n+]2CC)sc(=C2Sc3ccccc3N2C)c1=O
- solubility [1]: > 1000 µg/mL

Compound: CN1C(=c2sc(=Cc3oc4ccccc4[n+]3C)n(C)c2=O)Sc2ccccc21
- solubility [1]: 300 µg/mL

Compound: CCn1c(=Cc2sc3ccccc3[n+]2CC)sc(=CC=C2SC=C(C)N2C)c1=O
- solubility [1]: < 1000 µg/mL

Compound: CCn1c(=Cc2oc3c4ccccc4ccc3[n+]2CC)sc(=C2Sc3ccccc3N2C)c1=O
- solubility [1]: < 100 µg/mL

Compound: CCn1c(=Cc2sc3c4ccccc4ccc3[n+]2CC)sc(=CC=C2Sc3ccc4ccccc4c3N2C)c1=O [Compound 1]
- Tumor Inhibition ([2]; 2 mg/kg i.p., HP-β-CD added): 48.8%
- Tumor Inhibition ([2]; 2 mg/kg i.p., HP-β-CD non-added): 29.1%
- Tumor Inhibition ([2]; 4 mg/kg i.p., HP-β-CD added): 30.2%
- Tumor Inhibition ([2]; 4 mg/kg i.p., HP-β-CD non-added): 20.9%
- tumor inhibition, with vs without HP-β-CD ([2]; solution containing HP-β-CD vs no HP-β-CD): higher tumor inhibition than that containing no HP-β-CD
- solubility at 24 h ([3]; water only): 1860 µg/mL
- solubility at 24 h ([3]; water, peg 400 50%, organic solvent or mixture, Polyethylene glycol 400, 50 w/v %): 870 µg/mL
- solubility at 24 h ([3]; water, Pluronic F60 0.02 w/v %): 3230 µg/mL
- solubility at 24 h ([3]; water, Pluronic F60 0.2 w/v %): 3130 µg/mL
- solubility at 24 h ([3]; water, β-CD 1.5 w/v %): 8170 µg/mL
- increase of solubility in water by β-CD ([3]; β-CD vs compound itself in water): 4.4 times
- Solubility in water with cyclodextrins (FIG. 3) ([4]; β-CD, HP-β-CD and γ-CD): all cyclodextrin compounds used improve solubility of Compound 1 in water
- Solubility in water with γ-CD (FIG. 3) ([4]; γ-CD): γ-CD greatly improves the solubility
- Compound 1 dissolved in serum (FIGS. 1 and 2) [5]: much dissolved in the serums, depending on the increase in HP-β-CD concentration
- precipitation of Compound 1 in blood [6]: effectively inhibited
- Compound 1 dissolved in serum (FIGS. 1 and 2) [7]: much dissolved in the serums, depending on the increase in HP-β-CD concentration

Compound: CCN1C(=CC=c2sc(=CC3=[N+](CC)CCS3)n(CC)c2=O)C=Cc2ccccc21 [Compound 2]
- Solubility in water [8]: 0.03 mM/dl
- Solubility in aqueous solution of CD ([8]; β-CD 0.80 mM/dl): 0.55 mM/dl
- Solubility in water with cyclodextrin compounds [8]: improved by all of the cyclodextrin compounds used

Compound: CCn1c(=C2CCC[n+]3c2sc2ccccc23)sc(=C2Sc3ccccc3N2C)c1=O [Compound 4]
- Solubility in aqueous solution of CD ([8]; HP-β-CD 4.2 mM/dl): 0.03 mM/dl
- Solubility in water [8]: 0.001 mM/dl
- Solubility in water with cyclodextrin compounds [8]: improved by all of the cyclodextrin compounds used

Compound: CCn1c(=Cc2sc3c4ccccc4ccc3[n+]2CC)sc(=C2Sc3ccc4ccccc4c3N2C)c1=O [Compound 5]
- Solubility in water [8]: ~ 0 mM/dl
- Solubility in water with cyclodextrin compounds [8]: improved by all of the cyclodextrin compounds used
- Solubility in aqueous solution of CD ([8]; γ-CD 1.0 mM/dl): 0.02 mM/dl

Compound: CCn1c(=Cc2oc3ccccc3[n+]2CC)sc(=C2Sc3ccccc3N2C)c1=O [Compound 7]
- T/C (human melanoma LOX; 10 mg/kg i.p., HP-β-CD added, day 1, 4, 8, 12, 16, 21, 25): 200%
- T/C (human melanoma LOX; 10 mg/kg i.p., HP-β-CD non-added, day 1, 4, 8, 12, 16, 21, 25): 175%

Compound: CCN1C(=CC=c2sc(=Cc3cc[n+](CC)c4ccccc34)n(CC)c2=O)C=Cc2ccccc21 [Compound 8]
- T/C (human melanoma LOX; 20 mg/kg i.p., HP-β-CD added, day 1, 2, 3, 4, 8, 9): 227%
- T/C (human melanoma LOX; 20 mg/kg i.p., HP-β-CD non-added, day 1, 2, 3, 4, 8, 9): 183%

Compound: CCN1C(=CC=c2sc(=CC3=[N+](CC)CCS3)n(CC)c2=O)C=Cc2ccccc21 [drawing 16]
- solubility [1]: < 100 µg/mL

Compound: CCn1c(=Cc2oc3ccccc3[n+]2CC)sc(=C2Sc3ccccc3N2C)c1=O [drawing 17]
- solubility [1]: < 100 µg/mL

Compound: CCN1C(=CC=c2sc(=Cc3cc[n+](CC)c4ccccc34)n(CC)c2=O)C=Cc2ccccc21 [drawing 20]
- solubility [1]: < 100 µg/mL

Compound: CCn1c(=Cc2sc3c4ccccc4ccc3[n+]2CC)sc(=CC=C2Sc3ccc4ccccc4c3N2C)c1=O [drawing 21]
- solubility [1]: < 100 µg/mL

From US5670530A, “Anti-cancer composition comprising rhodacyanine compound and cyclodextrin” (Fuji Photo Film Co., Ltd., priority 1995, dated 1997)
